Source: patent US8716303B2, “N-(hetero)aryl-pyrrolidine derivatives of pyrazol-4-yl-pyrrolo[2,3-d]pyrimidines and pyrrol-3-yl-pyrrolo[2,3-d]pyrimidines as janus kinase inhibitors” (Incyte Corporation, priority 2009, dated 2014)
Counter-ions that a name gives are not always drawn.

Legend:
Jak2 (a.a. 828-1132) = target: T1, Jak2 (a.a. 828-1132) (Homo sapiens, UniProt O60674); test: In vitro JAK kinase assay (HTRF, phosphorylation of a biotinylated peptide), JAK2, reported as JAK2/JAK1 ratio; format: biochemical
T1 construct: Jak2 (a.a. 828-1132); His tag (N); made in house; host or cells: insect cells (baculovirus)

[1] = target: T2, human JAK1 (a.a. 837-1142) (Homo sapiens, UniProt P23458); test: In vitro JAK kinase assay (HTRF, phosphorylation of a biotinylated peptide), JAK1; format: biochemical
T2 construct: human JAK1 (a.a. 837-1142); His tag (N); made in house; host or cells: insect cells (baculovirus)
Summary of the method: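 IC50s come from HTRF detection (Eu-Py20, SA-APC, 40 min binding) after 1 h RT reactions with 500 nM biotinylated peptide in Tris pH 7.8 buffer. ATP either 1 mM or Km-level, 90 μM for JAK1 and 30 μM for JAK2; enzymes are baculovirus-expressed His-tagged catalytic domains (JAK1 837-1142, JAK2 828-1132).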

[2] = Assay Conditions Km (ATP 90 μM for Jak1, 30 μM for Jak2)
[3] = Assay Conditions Km (ATP 90 μM for Jak1)

T2 sequence (P23458 849-1154): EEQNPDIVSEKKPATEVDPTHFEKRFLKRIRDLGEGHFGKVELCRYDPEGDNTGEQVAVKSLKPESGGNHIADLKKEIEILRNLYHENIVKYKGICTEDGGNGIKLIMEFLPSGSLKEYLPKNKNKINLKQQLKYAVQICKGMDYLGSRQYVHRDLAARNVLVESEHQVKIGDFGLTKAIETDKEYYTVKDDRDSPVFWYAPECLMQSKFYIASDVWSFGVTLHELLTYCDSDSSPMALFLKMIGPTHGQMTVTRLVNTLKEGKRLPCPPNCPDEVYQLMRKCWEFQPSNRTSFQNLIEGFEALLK
T1 sequence (O60674 828-1132): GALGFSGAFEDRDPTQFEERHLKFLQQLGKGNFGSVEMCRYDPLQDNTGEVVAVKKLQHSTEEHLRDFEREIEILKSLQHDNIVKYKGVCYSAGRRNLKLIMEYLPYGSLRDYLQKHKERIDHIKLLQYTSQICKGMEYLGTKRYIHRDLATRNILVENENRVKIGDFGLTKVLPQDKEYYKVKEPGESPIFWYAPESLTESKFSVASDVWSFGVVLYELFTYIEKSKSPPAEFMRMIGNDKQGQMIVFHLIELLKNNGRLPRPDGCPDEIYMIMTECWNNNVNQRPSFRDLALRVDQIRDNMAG

JAK2/JAK1 IC50 ratio (Jak2 (a.a. 828-1132); Assay Conditions 1 mM ATP)	IC50 ([1]; Assay Conditions 1 mM ATP)	JAK2/JAK1 IC50 ratio (Jak2 (a.a. 828-1132); [2])	IC50 [1, 3]	SMILES
17.4	< 50 nM	–	–	N#CC[C@@H]([C@H]1CCN(c2ncc(CO)nc2C#N)C1)n1cc(-c2ncnc3[nH]ccc23)cn1 [Example 140, 3-((3S)-3-{(1S)-2-cyano-1-[4-(7H-pyrrolo[2,3-d]pyrimidin-4-yl)-1H-pyrazol-1-yl]ethyl}pyrrolidin-1-yl)-6-(hydroxymethyl)pyrazine-2-carbonitrile trifluoroacetate]
3.0	< 50 nM	–	–	N#CC[C@@H]([C@H]1CCN(c2nc(Cl)ccc2N)C1)n1cc(-c2ncnc3[nH]ccc23)cn1 [Example 105, (S)-3-(4-(7H-pyrrolo[2,3-d]pyrimidin-4-yl)-1H-pyrazol-1-yl)-3-((S)-1-(3-amino-6-chloropyridin-2-yl)pyrrolidin-3-yl)propanenitrile trifluoroacetate salt]
>16.7	< 50 nM	–	–	N#CC[C@@H]([C@H]1CCN(c2ccnc(Cl)c2C#N)C1)n1cc(-c2ncnc3[nH]ccc23)cn1 [Example 123, 2-chloro-4-((3S)-3-{(1S)-2-cyano-1-[4-(7H-pyrrolo[2,3-d]pyrimidin-4-yl)-1H-pyrazol-1-yl]ethyl}pyrrolidin-1-yl)nicotinonitrile trifluoroacetate]
51.1	< 50 nM	–	–	N#CC[C@@H]([C@H]1CCN(c2scc(O)c2C#N)C1)n1cc(-c2ncnc3[nH]ccc23)cn1 [Example 76, 2-((3S)-3-{(1S)-2-cyano-1-[4-(7H-pyrrolo[2,3-d]pyrimidin-4-yl)-1H-pyrazol-1-yl]ethyl}pyrrolidin-1-yl)-4-hydroxythiophene-3-carbonitrile]
17.5	< 50 nM	–	–	N#CC[C@@H]([C@H]1CCN(c2ncc(C(F)F)nc2C#N)C1)n1cc(-c2ncnc3[nH]ccc23)cn1 [Example 138, 3-((3S)-3-{(1S)-2-cyano-1-[4-(7H-pyrrolo[2,3-d]pyrimidin-4-yl)-1H-pyrazol-1-yl]ethyl}pyrrolidin-1-yl)-6-(difluoromethyl)pyrazine-2-carbonitrile trifluoroacetate]
20.0	< 50 nM	–	–	N#CC[C@@H]([C@H]1CCN(c2scc(C#N)c2C#N)C1)n1cc(-c2ncnc3[nH]ccc23)cn1 [Example 79, 2-((3S)-3-{(1S)-2-cyano-1-[4-(7H-pyrrolo[2,3-d]pyrimidin-4-yl)-1H-pyrazol-1-yl]ethyl}pyrrolidin-1-yl)thiophene-3,4-dicarbonitrile]
>4.8	< 50 nM	–	–	CC(O)c1cnc(N2CC[C@H]([C@H](CC#N)n3cc(-c4ncnc5[nH]ccc45)cn3)C2)c(C#N)n1 (stereo partly drawn) [Example 146, 3-((3S)-3-{(1S)-2-cyano-1-[4-(7H-pyrrolo[2,3-d]pyrimidin-4-yl)-1H-pyrazol-1-yl]ethyl}pyrrolidin-1-yl)-6-(1-hydroxyethyl)pyrazine-2-carbonitrile trifluoroacetate]
6.8	< 50 nM	–	–	N#CC[C@@H]([C@H]1CCN(c2nccnc2C#N)C1)n1cc(-c2ncnc3[nH]ccc23)cn1 [Example 51, 3-((3S)-3-{(1S)-2-cyano-1-[4-(7H-pyrrolo[2,3-d]pyrimidin-4-yl)-1H-pyrazol-1-yl]ethyl}pyrrolidin-1-yl)pyrazine-2-carbonitrile trifluoroacetate]
–	–	7.3	< 50 nM	N#CCC(C1CCN(c2cccc(Cl)n2)C1)n1cc(-c2ncnc3[nH]ccc23)cn1 (single isomer, unassigned) [2, Step 2a]
3.2	< 50 nM	–	–	N#CCC(C1CCN(c2ccnc(S)n2)C1)n1cc(-c2ncnc3[nH]ccc23)cn1 (single isomer, unassigned) [Example 150, 3-[1-(2-mercaptopyrimidin-4-yl)pyrrolidin-3-yl]-3-[4-(7H-pyrrolo[2,3-d]pyrimidin-4-yl)-1H-pyrazol-1-yl]propanenitrile]

The next lines start with the molecule.

SMILES	JAK2/JAK1 IC50 ratio (Jak2 (a.a. 828-1132); Assay Conditions 1 mM ATP)	IC50 ([1]; Assay Conditions 1 mM ATP)	JAK2/JAK1 IC50 ratio (Jak2 (a.a. 828-1132); [2])	IC50 [1, 3]
N#CCC(C1CCN(c2ncc3c(c2C#N)SCC3)C1)n1ccc(-c2ncnc3[nH]ccc23)c1 (single isomer, unassigned) [Example 174-1, 6-(3-{2-cyano-1-[3-(7H-pyrrolo[2,3-d]pyrimidin-4-yl)-1H-pyrrol-1-yl]ethyl}pyrrolidin-1-yl)-2,3-dihydrothieno[3,2-c]pyridine-7-carbonitrile]	28.5	< 50 nM	–	–
N#CC[C@@H]([C@H]1CCN(c2cccc(C#N)c2C#N)C1)n1cc(-c2ncnc3[nH]ccc23)cn1 [Example 49, 3-((3S)-3-{(1S)-2-cyano-1-[4-(7H-pyrrolo[2,3-d]pyrimidin-4-yl)-1H-pyrazol-1-yl]ethyl}pyrrolidin-1-yl)phthalonitrile trifluoroacetate]	10.2	< 50 nM	–	–
N#CCC(C1CCN(c2ccc3c(n2)C(F)(F)CC3)C1)n1cc(-c2ncnc3[nH]ccc23)cn1 (single isomer, unassigned) [Example 157, 3-[1-(7,7-difluoro-6,7-dihydro-5H-cyclopenta[b]pyridin-2-yl)pyrrolidin-3-yl]-3-[4-(7H-pyrrolo[2,3-d]pyrimidin-4-yl)-1H-pyrazol-1-yl]propanenitrile bis(trifluoroacetate)]	>5.3	< 50 nM	–	–
N#Cc1csc(N2CC[C@H](C(CF)n3cc(-c4ncnc5[nH]ccc45)cn3)C2)c1C#N (stereo partly drawn) [Example 80, 2-((3S)-3-{2-fluoro-1-[4-(7H-pyrrolo[2,3-d]pyrimidin-4-yl)-1H-pyrazol-1-yl]ethyl}pyrrolidin-1-yl)thiophene-3,4-dicarbonitrile]	12.1	< 50 nM	–	–
CCS(=O)(=O)c1cc(N2CCC(C(CC#N)n3ccc(-c4ncnc5[nH]ccc45)c3)C2)ccn1 (racemic) [Example 148-rac, 3-{1-[2-(ethylsulfonyl)pyridin-4-yl]pyrrolidin-3-yl}-3-[3-(7H-pyrrolo[2,3-d]pyrimidin-4-yl)-1H-pyrrol-1-yl]propanenitrile]	4.0	< 50 nM	–	–
N#CCC(C1CCN(c2nc3cc(F)ccc3o2)C1)n1cc(-c2ncnc3[nH]ccc23)cn1 (single isomer, unassigned) [Example 19, 3-[1-(5-fluoro-1,3-benzoxazol-2-yl)pyrrolidin-3-yl]-3-[4-(7H-pyrrolo[2,3-d]pyrimidin-4-yl)-1H-pyrazol-1-yl]propanenitrile]	5.3	< 50 nM	–	–
N#CCC(C1CCN(c2ccc3c(n2)S(=O)(=O)CC3)C1)n1cc(-c2ncnc3[nH]ccc23)cn1 (single isomer, unassigned) [Example 30, 3-[1-(1,1-dioxido-2,3-dihydrothieno[2,3-b]pyridin-6-yl)pyrrolidin-3-yl]-3-[4-(7H-pyrrolo[2,3-d]pyrimidin-4-yl)-1H-pyrazol-1-yl]propanenitrile]	14.5	< 50 nM	–	–
CSc1cccc(N2CCC(C(CC#N)n3cc(-c4ncnc5[nH]ccc45)cn3)C2)c1C#N (racemic) [Example 40, ±2-(3-{2-cyano-1-[4-(7H-pyrrolo[2,3-d]pyrimidin-4-yl)-1H-pyrazol-1-yl]ethyl}pyrrolidin-1-yl)-6-(methylthio)benzonitrile]	7.1	< 50 nM	–	–
N#CCC(C1CCN(c2nc3ccccc3nc2O)C1)n1cc(-c2ncnc3[nH]ccc23)cn1 (stereo not drawn) [Example 43, 3-[1-(3-hydroxyquinoxalin-2-yl)pyrrolidin-3-yl]-3-[4-(7H-pyrrolo[2,3-d]pyrimidin-4-yl)-1H-pyrazol-1-yl]propanenitrile trifluoroacetate salt]	–	–	2.5	< 50 nM
N#CC[C@@H]([C@H]1CCN(c2nc(Br)ccc2F)C1)n1cc(-c2ncnc3[nH]ccc23)cn1.O=C(O)C(F)(F)F.O=C(O)C(F)(F)F [Example 88, (3S)-3-[(3S)-1-(6-bromo-3-fluoropyridin-2-yl)pyrrolidin-3-yl]-3-[4-(7H-pyrrolo[2,3-d]pyrimidin-4-yl)-1H-pyrazol-1-yl]propanenitrile bis(trifluoroacetate)]	40.0	< 50 nM	–	–
N#CCC(C1CCN(c2ncc3cccc(Cl)c3n2)C1)n1cc(-c2ncnc3[nH]ccc23)cn1 (stereo not drawn) [Example 44, 3-[1-(8-chloroquinazolin-2-yl)pyrrolidin-3-yl]-3-[4-(7H-pyrrolo[2,3-d]pyrimidin-4-yl)-1H-pyrazol-1-yl]propanenitrile trifluoroacetate salt]	–	–	3	< 50 nM
N#CC[C@@H]([C@H]1CCN(c2nc3c(cc2F)CCS3)C1)n1cc(-c2ncnc3[nH]ccc23)cn1 [Example 87, (3S)-3-[(3S)-1-(5-fluoro-2,3-dihydrothieno[2,3-b]pyridin-6-yl)pyrrolidin-3-yl]-3-[4-(7H-pyrrolo[2,3-d]pyrimidin-4-yl)-1H-pyrazol-1-yl]propanenitrile bis(trifluoroacetate)]	8.1	< 50 nM	–	–
N#CCC(C1CCN(c2nc3cccc(F)c3o2)C1)n1ccc(-c2ncnc3[nH]ccc23)c1 (single isomer, unassigned) [Example 158-2, 3-[1-(7-fluoro-1,3-benzoxazol-2-yl)pyrrolidin-3-yl]-3-[3-(7H-pyrrolo[2,3-d]pyrimidin-4-yl)-1H-pyrrol-1-yl]propanenitrile]	19.0	< 50 nM	–	–
N#CCC(C1CCN(c2ncc3ccoc3c2C#N)C1)n1ccc(-c2ncnc3[nH]ccc23)c1 (racemic) [Example 170-rac, 6-(3-{2-cyano-1-[3-(7H-pyrrolo[2,3-d]pyrimidin-4-yl)-1H-pyrrol-1-yl]ethyl}pyrrolidin-1-yl)furo[3,2-c]pyridine-7-carbonitrile]	4.5	< 50 nM	–	–
